# Values of other authors, collected in patent US9561285B2, “Carrier-linked carbamate prodrug linkers” (Ascendis Pharma AS, priority 2010, dated 2017).
# Details: buffer, pH 7
structure (smiles),measurement,value
O=C(Nc1ccccc1)Oc1ccc([N+](=O)[O-])cc1 [p-nitrophenyl-O—CO—NH-phenyl],half-life of hydrolysis,26 s
